Where two headings read alike, the source gives them in different places.
Experiment: Pharmacokinetics of migalastat HCl in a Fabry patient with severe renal impairment (P3, 2004-5029; Example 6)
Assay type: in vivo, human
Method: Migalastat levels can be measured via methods known in the art. […] Microcentrifuge tubes containing 100 μl of the tissue homogenate or 50 μl of plasma may then be spiked with 500 ng/mL 13C d2-AT1001 HCl internal standard (manufactured by MDS Pharma Services). A 600 μl volume of 5 mM HCl in 95/5 MeOH:H2O can then be added and the tubes vortexed for 2 minutes, followed by centrifugation at 21000×g for 10 minutes at room temperature. The supernatants may then be collected into a clean, 96-well plate, diluted with 5 mM HCl in dH2O and applied to a 96-well solid phase extraction (SPE) plate (Waters Corp., Milford Mass.). […] The liquid chromatography can be conducted using an ACN:water:formate binary mobile phase system (mobile phase A: 5 mM ammonium formate, 0.5% formic acid in 95:5 ACN:water; mobile phase B: 5 mM ammonium formate, 0.5% formic acid in 5:47.5:47.5 ACN:MeOH:water) with a flow rate of 0.7 mL/minute on an Halo HILIC column (150×4.6 mm, 2.7 μm) (Advanced Materials Technology, Inc.). MS/MS analysis may be carried out under APCi positive ion mode. The same procedure may be followed for migalastat determination in plasma except without homogenization. […] A 12-point calibration curve and quality control samples may be prepared. […] To derive approximate molar concentrations, one gram of tissue may be estimated as one mL of volume.
PK data was collected every three months.

[1] = Severe RI Fabry patient 2004-5029 (P3), CLcr 21, 5/17, Q4D regimen
[2] = human, plasma, Severe RI Fabry patient 2004-5029 (P3), CLcr 21, 5/17, Q4D regimen

Plasma Migalastat Conc (Fabry patient P3, May ′17 (Q4D), 0 h): BLQ
CL/F [1]: 4.67 L/h
Frel [1]: 2.6
concentration at 0 h (human, plasma, Plasma Migalastat Conc, Fabry patient P3, Aug ′15, 0 h): 36.4 ng/mL
concentration at 3 h (human, plasma, Plasma Migalastat Conc, Fabry patient P3, Aug ′15, 3 h): 2160 ng/mL
concentration at 24 h (human, plasma, Plasma Migalastat Conc, Fabry patient P3, Aug ′15, 24 h): 211 ng/mL
concentration at 48 h (human, plasma, Plasma Migalastat Conc, Fabry patient P3, Aug ′15, 48 h): 62.4 ng/mL
concentration at 48 h (human, plasma, Plasma Migalastat Conc, Fabry patient P3, Aug ′17 (Q4D), 48 h): 130 ng/mL
concentration at 96 h (human, plasma, Plasma Migalastat Conc, Fabry patient P3, Aug ′17 (Q4D), 96 h): 61.3 ng/mL
concentration at 0 h (human, plasma, Plasma Migalastat Conc, Fabry patient P3, Feb ′15, 0 h): 19.9 ng/mL
concentration at 3 h (human, plasma, Plasma Migalastat Conc, Fabry patient P3, Feb ′15, 3 h): 1620 ng/mL
concentration at 24 h (human, plasma, Plasma Migalastat Conc, Fabry patient P3, Feb ′15, 24 h): 168 ng/mL
concentration at 48 h (human, plasma, Plasma Migalastat Conc, Fabry patient P3, Feb ′15, 48 h): 41.8 ng/mL
concentration at 0 h (human, plasma, Plasma Migalastat Conc, Fabry patient P3, Mar ′11, 0 h): 38.1 ng/mL
concentration at 3 h (human, plasma, Plasma Migalastat Conc, Fabry patient P3, Mar ′11, 3 h): 1560 ng/mL
concentration at 4 h (human, plasma, Plasma Migalastat Conc, Fabry patient P3, Mar ′11, 4 h): 1570 ng/mL
concentration at 8 h (human, plasma, Plasma Migalastat Conc, Fabry patient P3, Mar ′11, 8 h): 802 ng/mL
concentration at 3 h (human, plasma, Plasma Migalastat Conc, Fabry patient P3, May ′17 (Q4D), 3 h): 2110 ng/mL
concentration at 4 h (human, plasma, Plasma Migalastat Conc, Fabry patient P3, May ′17 (Q4D), 4 h): 1970 ng/mL
concentration at 8 h (human, plasma, Plasma Migalastat Conc, Fabry patient P3, May ′17 (Q4D), 8 h): 1380 ng/mL
concentration at 24 h (human, plasma, Plasma Migalastat Conc, Fabry patient P3, May ′17 (Q4D), 24 h): 358 ng/mL
concentration at 48 h (human, plasma, Plasma Migalastat Conc, Fabry patient P3, May ′17 (Q4D), 48 h): 77.4 ng/mL
concentration at 96 h (human, plasma, Plasma Migalastat Conc, Fabry patient P3, May ′17 (Q4D), 96 h): 18.4 ng/mL
concentration at 48 h (human, plasma, Plasma Migalastat Conc, Fabry patient P3, Nov ′17 (Q4D), 48 h): 401 ng/mL
concentration at 96 h (human, plasma, Plasma Migalastat Conc, Fabry patient P3, Nov ′17 (Q4D), 96 h): 86.2 ng/mL
concentration at 48 h (human, plasma, Severe RI Fabry patient 2004-5029 (P3), CLcr 15, 11/17, Q4D regimen, read-out: C48 h): 401 ng/mL
concentration at 96 h (human, plasma, Severe RI Fabry patient 2004-5029 (P3), CLcr 15, 11/17, Q4D regimen, read-out: C96 h): 86.2 ng/mL
concentration at 48 h (human, plasma, Severe RI Fabry patient 2004-5029 (P3), CLcr 19, 8/17, Q4D regimen, read-out: C48 h): 130 ng/mL
concentration at 96 h (human, plasma, Severe RI Fabry patient 2004-5029 (P3), CLcr 19, 8/17, Q4D regimen, read-out: C96 h): 61.3 ng/mL
AUC(0-inf) [2]: 32100 ng·h/mL
AUC(0-t) [2]: 31900 ng·h/mL
Cmax [2]: 2250 ng/mL
half-life [2]: 13.2 h
tmax [2]: 2 h
concentration at 48 h (human, plasma, Severe RI Fabry patient 2004-5029 (P3), CLcr 21, 5/17, Q4D regimen, read-out: C48 h): 77.4 ng/mL
concentration at 96 h (human, plasma, Severe RI Fabry patient 2004-5029 (P3), CLcr 21, 5/17, Q4D regimen, read-out: C96 h): 18.4 ng/mL
SMILES: OC[C@H]1NC[C@H](O)[C@@H](O)[C@H]1O [migalastat, (2R,3S,4R,55)-2-(hydroxymethyl) piperdine-3,4,5-triol]
